# From patent publication US20190276399A1, “POLYMORPH OF NINTEDANIB” (Olon S.P.A., priority 2016, published 2019)
# Assay: solubility in organic solvents and in water
# Assay type: physicochemical
# Settings: in various organic solvents and in water; compared with nintedanib ethanesulphonate hemihydrate form known from WO 2004/013099
structure (smiles),measurement,value
"COC(=O)c1ccc2c(c1)NC(=O)/C2=C(\Nc1ccc(N(C)C(=O)CN2CCN(C)CC2)cc1)c1ccccc1 [methyl-(3Z)-3-{[(4-{methyl[(4-methylpiperazin-1-yl)acetyl]amino}phenyl)amino](phenyl)methylidene}-2-oxo-2,3-dihydro-1H-indole-6-carboxylate]",solubility,better solubility in various organic solvents and in water
